# Measurements: US10870638B2, “Pyridazinone compound or its salt, and herbicide containing it” (ISHIHARA SANGYO KAISHA, LTD., priority 2016, dated 2020)
# Tests used:
# Assay in all cases: Test Example 1: foliar treatment, growth inhibition rate on 14th day
# Assay type in all cases: in vivo
# Conditions in all cases: active ingredient amount 31 g/ha, 14th day after application, visual, 0 = non-treated, 100 = complete kill
# [1] = tested on: wild oat (Avena fatua L.)
# In short: (§1)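 Sow seeds in upland soil pots; at target leaf stage (wild oat 0.4–1.2, rice 0.2–2.7, foxtail 0.5–3.2, soybean primary leaf) spray formulated compound in water, 1,000 L/ha, 0.1 vol % surfactant. Score inhibition visually at day 14, 0–100%.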
# [2] = tested on: crabgrass (Digitaria sanquinalis L.)
# In short: (§2)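 Visual 0–100% inhibition scoring (100 = complete kill) at 14 days after foliar treatment of soil-grown seedlings at species-specific leaf stages, with the compound sprayed as a wettable powder or emulsifiable concentrate dilution.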
# [3] = tested on: barnyardgrass (Echinochloa crus-qalli L.)
# In short: as §2
# [4] = tested on: green foxtail (Setaria viridis L.)
# In short: as §1
# [5] = tested on: redroot pigweed (Amaranthus retroflexus L.)
# In short: as §2
# [6] = tested on: soybean (Glycine max Merr.)
# In short: as §1
# corn (Zea mays L.) = tested on: corn (Zea mays L.)
# In short: as §2
# rice (Oryza sativa L.) = tested on: rice (Oryza sativa L.)
# In short: as §1
# [7] = tested on: italian ryegrass (Lolium multiflorum Lam.)
# In short: as §2
# [8] = tested on: wheat (Triticum aestivum L.)
# In short: as §2
Structure (SMILES),Growth inhibition rate (%) Wild oat [1] [%],Growth inhibition rate (%) Crabgrass [2] [%],Growth inhibition rate (%) Barnyardgrass [3] [%],Growth inhibition rate (%) Green foxtail [4] [%],Growth inhibition rate (%) Redroot pigweed [5] [%],Growth inhibition rate (%) Soybean [6] [%],Growth inhibition rate (%) Corn (corn (Zea mays L.)) [%],Growth inhibition rate (%) Rice (rice (Oryza sativa L.)) [%],Growth inhibition rate (%) Italian ryegrass [7] [%],Growth inhibition rate (%) Wheat [8] [%]
COC(=O)CCC(=O)Oc1c(C)nn(C)c(=O)c1-c1cc(Oc2cnc3cc(Cl)ccc3n2)ccc1C [Compound 3-46],100,99,100,100,20,35,50,98,100,98
Cc1ccc(Oc2cnc3cc(Cl)ccc3n2)cc1-c1c(OC(=O)Cc2ccccc2)c(C)nn(C)c1=O [Compound 3-47],99,99,100,100,0,20,40,30,99,98
Cc1ccc(Oc2cnc3cc(Cl)ccc3n2)cc1-c1c(OC(=O)CC(C)(C)C)c(C)nn(C)c1=O [Compound 3-53],60,93,100,95,0,0,0,40,65,0
CCCSC(=O)Oc1c(C)nn(C)c(=O)c1-c1cc(Oc2cnc3cc(Cl)ccc3n2)ccc1C [Compound 3-56],99,99,98,100,0,30,40,0,98,93
Cc1ccc(Oc2cnc3cc(Cl)ccc3n2)cc1-c1c(OC(=O)OC(C)C)c(C)nn(C)c1=O [Compound 3-60],98,95,99,100,0,10,20,10,95,93
Cc1ccc(Oc2cnc3cc(Cl)ccc3n2)cc1-c1c(OC(=O)OC2CC(C)CCC2C(C)C)c(C)nn(C)c1=O (centres unmarked) [Compound 3-61],0,20,0,60,0,0,20,0,0,0
Cc1ccc(Oc2cnc3cc(Cl)ccc3n2)cc1-c1c(OC(=S)Oc2ccccc2)c(C)nn(C)c1=O [Compound 3-62],99,99,100,99,0,20,60,0,93,90
Cc1ccc(Oc2cnc3cc(Cl)ccc3n2)cc1-c1c(OC(=S)Sc2ccccc2)c(C)nn(C)c1=O [Compound 3-63],98,98,100,100,0,0,40,0,90,83
Cc1ccc(Oc2cnc3cc(Cl)ccc3n2)cc1-c1c(OC(=O)N(C)C)c(C)nn(C)c1=O [Compound 3-65],75,83,100,99,0,10,40,0,85,98
Cc1ccc(Oc2cnc3cc(Cl)ccc3n2)cc1-c1c(OC(=O)N(C)c2ccccc2)c(C)nn(C)c1=O [Compound 3-66],50,20,10,35,0,0,25,0,40,10
Cc1ccc(Oc2cnc3cc(Cl)ccc3n2)cc1-c1c(OC(=S)N(C)C)c(C)nn(C)c1=O [Compound 3-67],100,95,100,100,0,0,50,40,99,99
CCS(=O)(=O)Oc1c(C)nn(C)c(=O)c1-c1cc(Oc2cnc3cc(Cl)ccc3n2)ccc1C [Compound 3-68],90,95,100,100,0,0,20,0,83,30
Cc1ccc(Oc2cnc3cc(Cl)ccc3n2)cc1-c1c(OS(=O)(=O)C2CC2)c(C)nn(C)c1=O [Compound 3-70],60,88,98,98,0,10,30,0,40,0
Cc1ccc(S(=O)(=O)Oc2c(C)nn(C)c(=O)c2-c2cc(Oc3cnc4cc(Cl)ccc4n3)ccc2C)cc1 [Compound 3-71],99,90,100,100,0,0,0,15,98,95
C=CCOc1c(C)nn(C)c(=O)c1-c1cc(Oc2cnc3cc(Cl)ccc3n2)ccc1C [Compound 3-74],25,20,93,95,0,0,20,0,0,0
COCCOCOc1c(C)nn(C)c(=O)c1-c1cc(Oc2cnc3cc(Cl)ccc3n2)ccc1C [Compound 3-75],98,95,99,99,0,0,10,0,98,95
Cc1ccc(Oc2cnc3cc(Cl)ccc3n2)cc1-c1c(OC(C)OC(=O)OC2CCCCC2)c(C)nn(C)c1=O (centres unmarked) [Compound 3-76],0,30,93,93,0,0,0,0,10,0
